Data taken from ChEMBL document CHEMBL4689842, “EUbOPEN Chemogenomics Library wave 1” (2021).

What was measured:
Type in all cases: toxicity, cell-based
[1] = system: HEK-293T; experiment: Incucyte cell viability with HEK293T; conditions: human, 10 µM, compound concentration 10 uM
[2] = system: U2OS; experiment: Incucyte cell viability with U2OS; conditions: human, 10 µM, compound concentration 10 uM
[3] = system: Fibroblast; experiment: Incucyte cell viability with human fibroblast; conditions: 10 µM, compound concentration 10 uM
[4] = 0 h, replicate number 2, timepoint 0 hours
[5] = 6 h, replicate number 1, timepoint 6 hours
[6] = 12 h, replicate number 2, timepoint 12 hours
[7] = 18 h, replicate number 1, timepoint 18 hours
[8] = 24 h, replicate number 1, timepoint 24 hours
[9] = 0 h, replicate number 1, timepoint 0 hours
[10] = 12 h, replicate number 1, timepoint 12 hours
[11] = 6 h, replicate number 2, timepoint 6 hours
[12] = 18 h, replicate number 2, timepoint 18 hours
[13] = 24 h, replicate number 2, timepoint 24 hours
Note: filed as whole numbers so only -1 and 0 and 1 occur.

SMILES	Growth Rate [1, 4]	Growth Rate [1, 5]	Growth Rate [1, 7]	Growth Rate [1, 8]	Growth Rate [2, 9]	Growth Rate [2, 5]	Growth Rate [2, 10]	Growth Rate [2, 7]	Growth Rate [2, 8]	Growth Rate [3, 9]	Growth Rate [3, 10]	Growth Rate [3, 7]	Growth Rate [3, 8]	Growth Rate [1, 10]	Growth Rate [2, 11]	Growth Rate [2, 13]	Growth Rate [3, 5]	Growth Rate [3, 12]	Growth Rate [3, 11]	Growth Rate [1, 9]	further results
COc1cc2c(cc1-c1c(C)noc1C)ncc1[nH]c(=O)n([C@H](C)c3ccccn3)c12	0	0	0	0	0	1	1	1	1	0	1	0	0	–	–	–	–	–	–	–	Growth Rate [1, 6]: 0; Growth Rate [3, 6]: 0
FC(F)(F)c1c(N2CCC(c3ccccc3)CC2)ccn2c(CC3CC3)nnc12	0	0	0	0	–	0	0	0	0	0	1	1	0	0	1	1	1	0	–	–	Growth Rate [2, 4]: 0; Growth Rate [2, 6]: 1; Growth Rate [2, 12]: 1
CCCc1cc(C)[nH]c(=O)c1CNC(=O)c1cc(-c2ccnc(N3CCN(C)CC3)c2)cc2c1cnn2C(C)C	1	0	0	0	0	0	1	0	0	0	1	1	1	0	–	1	–	0	0	–	Growth Rate [3, 13]: 0
C[C@@H](NCCc1ccc(O)cc1)[C@@H](O)c1ccc(O)cc1.Cl (relative stereo)	–	0	0	0	0	–	1	1	1	0	–	–	–	0	1	–	–	1	–	0	Growth Rate [1, 11]: 1; Growth Rate [1, 6]: 1; Growth Rate [3, 13]: 1
CCCCN(CCCC)C(=O)CN1C[C@@H](c2cc(OC)c3c(c2)OCO3)[C@H](C(=O)O)[C@H]1CC(C)(C)CCC [A-545]	–	0	0	0	0	0	0	0	0	–	0	0	0	0	–	–	0	–	–	–	Growth Rate [2, 6]: 1
CCCOc1ccc([C@@H]2[C@@H](C(=O)O)[C@H](c3ccc4c(c3)OCO4)CN2CC(=O)Nc2c(CC)cccc2CC)cc1 [A-1806262]	–	1	1	1	0	1	1	1	1	0	1	1	1	1	0	0	1	0	0	0	Growth Rate [1, 13]: 0; Growth Rate [2, 12]: 0; Growth Rate [3, 4]: 1; Growth Rate [3, 6]: 0; Growth Rate [3, 13]: 0
NS(=O)(=O)c1cc(NC(=O)C2(c3ccccc3Cl)CC2)ccc1Oc1cccc(Cl)c1 [BAY-207]	–	0	0	0	0	0	0	0	1	0	–	1	1	0	–	0	1	–	0	0	Growth Rate [3, 6]: 1
CC1=C(C#N)C(c2ccc3c(c2)c(NC(=O)c2ccccc2C)nn3C)C(C#N)=C(C)N1 [BAY-974]	1	–	–	–	–	1	1	1	1	–	1	1	1	–	0	–	1	–	–	0	Growth Rate [1, 13]: 1; Growth Rate [2, 4]: 0; Growth Rate [2, 6]: 0; Growth Rate [3, 4]: 0
C[C@H](c1ccnc(Nc2nc3ccc(-c4cc(N(C)C)ncn4)cc3[nH]2)c1)N1CCN(C(=O)CC(F)(F)F)CC1 [BAY-985]	1	–	–	–	0	1	1	0	1	1	1	1	1	–	–	–	1	–	–	0	Growth Rate [1, 13]: 1; Growth Rate [2, 12]: 1
CC(=O)N1CCC(c2ccc(C(=O)NC3=NCCN3)cc2C(F)(F)F)CC1 [BI 0054]	0	1	1	1	0	–	1	1	1	0	1	1	1	0	–	–	1	–	0	1	Growth Rate [1, 11]: 0; Growth Rate [1, 12]: 0; Growth Rate [1, 13]: 0
